Measured values taken from ChEMBL document CHEMBL5537210, “Probing Isosteric Replacement for Immunoadjuvant Design: Bis-Aryl Triazole Trehalolipids are Mincle Agonists” (ACS Med Chem Lett, 2024).
Calls of active or inactive are those of the source. The rule behind the calls is not given here.

Legend:
Assay type in all cases: functional, cell-based
Details in all cases: dose 0.1-1 nmol
[1] = tested on: 2B4; test: Induction of NFAT-GFP signal in mouse 2B4 reporter cells expressing mMincle + FcRgamma at 0.1 to 1 nmol incubated for 18 hrs by flow cytometry analysis
[2] = tested on: BMDM; test: Induction of cytokine production in wild type C57BL/6 mouse BMDM cells assessed as IL-10 secretion at 0.1 to 1 nmol incubated for 24 hrs by ELISA method
[3] = tested on: BMDM; test: Induction of cytokine production in wild type C57BL/6 mouse BMDM cells assessed as IL-1beta secretion at 0.1 to 1 nmol incubated for 24 hrs by ELISA method
[4] = tested on: BMDM; test: Induction of cytokine production in wild type C57BL/6 mouse BMDM cells assessed as IL-6 secretion at 0.1 to 1 nmol incubated for 24 hrs by ELISA method

| SMILES | Activity [1] | Activity [2] | Activity [3] | Activity [4] |
| --- | --- | --- | --- | --- |
| CCCCCCCCOc1cc(OCCCCCCCC)cc(-c2cn(C[C@H]3O[C@H](O[C@H]4O[C@H](Cn5cc(-c6cc(OCCCCCCCC)cc(OCCCCCCCC)c6)nn5)[C@@H](O)[C@H](O)[C@H]4O)[C@H](O)[C@@H](O)[C@@H]3O)nn2)c1 | Active | Active | inactive | Active |
| CCCCCCCCOc1cccc(-c2cn(C[C@H]3O[C@H](O[C@H]4O[C@H](Cn5cc(-c6cccc(OCCCCCCCC)c6OCCCCCCCC)nn5)[C@@H](O)[C@H](O)[C@H]4O)[C@H](O)[C@@H](O)[C@@H]3O)nn2)c1OCCCCCCCC | Active | Active | Active | Active |
| CCCCCCCCOc1ccccc1-c1cn(C[C@H]2O[C@H](O[C@H]3O[C@H](Cn4cc(-c5ccccc5OCCCCCCCC)nn4)[C@@H](O)[C@H](O)[C@H]3O)[C@H](O)[C@@H](O)[C@@H]2O)nn1 | Active |  |  |  |
| CCCCCCCCOc1ccc(-c2cn(C[C@H]3O[C@H](O[C@H]4O[C@H](Cn5cc(-c6ccc(OCCCCCCCC)c(OCCCCCCCC)c6)nn5)[C@@H](O)[C@H](O)[C@H]4O)[C@H](O)[C@@H](O)[C@@H]3O)nn2)cc1OCCCCCCCC | Active | inactive | inactive | inactive |
| O[C@@H]1[C@@H](O)[C@@H](O[C@H]2O[C@H](Cn3cc(-c4ccccc4)nn3)[C@@H](O)[C@H](O)[C@H]2O)O[C@H](Cn2cc(-c3ccccc3)nn2)[C@H]1O | inactive |  |  |  |
| CCCCCCCCOc1ccc(-c2cn(C[C@H]3O[C@H](O[C@H]4O[C@H](Cn5cc(-c6ccc(OCCCCCCCC)cc6)nn5)[C@@H](O)[C@H](O)[C@H]4O)[C@H](O)[C@@H](O)[C@@H]3O)nn2)cc1 | Active |  |  |  |
| CCCCCCCCOc1ccc(-c2cn(C[C@H]3O[C@H](O[C@H]4O[C@H](Cn5cc(-c6ccc(OCCCCCCCC)cc6OCCCCCCCC)nn5)[C@@H](O)[C@H](O)[C@H]4O)[C@H](O)[C@@H](O)[C@@H]3O)nn2)c(OCCCCCCCC)c1 | Active | Active | Active | Active |
